Reference: patent US9617271B2, “Triazolo compounds” (Hoffmann-La Roche Inc., priority 2012, dated 2017)

target: human PDE10A (Homo sapiens (Human), UniProt Q9Y233); assay: human PDE10A full length assay ([3H]-cGMP SPA); type: biochemical; details: human PDE10A full length enzyme, 50 nM cGMP + 50 nM [3H]-cGMP, 20 minutes at room temperature; read-out: PDE10A inhibition IC50
Procedure: The human PDE10A full length assay was performed in 96-well micro titer plates. The reaction mixture of 50 μl contained 20 mM HEPES pH=7.5/10 mM MgCl2/0.05 mg/ml BSA (Sigma cat. #A-7906), 50 nM cGMP (Sigma, cat. #G6129) and 50 nM [3H]-cGMP (GE Healthcare, cat. #TRK392 S.A. 13.2 Ci/mmol), 3.75 ng/well PDE10A enzyme (Enzo Life Science, Lausen, Switzerland cat #SE-534) with or without a specific test compound. A range of concentrations of the potential inhibitor was used to generate data for calculating the concentration of inhibitor resulting in 50% of the effect (e.g. IC50, the concentration of the competitor inhibiting PDE10A activity by 50%). Non-specific activity was tested without the enzyme. The reaction was initiated by the addition of the substrate solution (cGMP and [3H]-cGMP) and allowed to progress for 20 minutes at room temperature. The reaction was terminated by adding 25 μl of YSi-SPA scintillation beads (GE Healthcare, cat. #RPNQ0150) in 18 mM zinc sulphate solution (stop reagent). After 1 h under shaking, the plate was centrifuged one minute at 170 g to allow beads to settle. Afterwards, radioactive counts were measured on a Perkin Elmer TopCount Scintillation plate reader.

Sequence of human PDE10A (Q9Y233 other isoform, or with tags, fused parts or gaps): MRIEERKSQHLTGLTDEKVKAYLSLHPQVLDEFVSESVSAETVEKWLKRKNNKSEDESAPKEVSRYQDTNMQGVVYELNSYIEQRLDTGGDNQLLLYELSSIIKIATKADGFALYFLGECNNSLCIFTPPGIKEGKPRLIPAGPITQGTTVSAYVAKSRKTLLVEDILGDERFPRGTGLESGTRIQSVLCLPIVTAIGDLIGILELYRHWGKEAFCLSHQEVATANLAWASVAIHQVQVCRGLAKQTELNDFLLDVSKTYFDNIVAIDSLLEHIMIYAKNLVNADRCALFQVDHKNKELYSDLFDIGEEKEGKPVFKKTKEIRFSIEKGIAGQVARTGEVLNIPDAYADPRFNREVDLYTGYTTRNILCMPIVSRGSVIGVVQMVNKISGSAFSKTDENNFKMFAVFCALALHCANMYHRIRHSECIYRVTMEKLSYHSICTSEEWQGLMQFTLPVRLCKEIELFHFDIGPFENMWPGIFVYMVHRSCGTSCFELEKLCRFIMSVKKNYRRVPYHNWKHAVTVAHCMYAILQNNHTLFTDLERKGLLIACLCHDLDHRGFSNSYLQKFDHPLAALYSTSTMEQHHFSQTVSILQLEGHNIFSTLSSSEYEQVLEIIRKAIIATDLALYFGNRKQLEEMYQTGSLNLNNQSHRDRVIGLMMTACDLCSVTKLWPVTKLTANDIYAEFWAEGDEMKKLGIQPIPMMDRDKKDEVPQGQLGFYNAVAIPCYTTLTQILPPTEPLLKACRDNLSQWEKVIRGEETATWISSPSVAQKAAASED

IC50 [nM]	Compound
11	Cc1nc2cc(C(F)(F)F)c(C#Cc3nc(N4CCCC4)nn3C)nn2c1C [Example 42, 2,3-Dimethyl-6-((1-methyl-3-(pyrrolidin-1-yl)-1H-1,2,4-triazol-5-yl)ethynyl)-7-(trifluoro-methyl)imidazo[1,2-b]pyridazine]
11	Cc1nc2c(Cl)nc(CCc3nc(N4CCCC4)n(C)n3)nn2c1C [Example 20, 4-Chloro-6,7-dimethyl-2-(2-(1-methyl-5-(pyrrolidin-1-yl)-1H-1,2,4-triazol-3-yl)ethyl)-imidazo[1,2-f][1,2,4]triazine]
14.5	Cc1nc2ccc(CCc3nc(N4CCCC4)nn3C)nn2c1Cl [Example 66, 3-Chloro-2-methyl-6-(2-(1-methyl-3-(pyrrolidin-1-yl)-1H-1,2,4-triazol-5-yl)ethyl)imidazo[1,2-b]pyridazine]
41	Cn1nc(N2CCCC2)nc1CCc1ccc2nc3c(n2n1)CCC3 [Example 14, 5-[2-(2-Methyl-5-pyrrolidin-1-yl-2H-[1,2,4]triazol-3-yl)-ethyl]-2,3-dihydro-1H-3b,4,8-triaza-cyclopenta[a]indene]
12	Cc1c(C(F)(F)F)nc2ccc(CCc3nc(N4CCCC4)nn3C)nn12 [Example 1, 3-Methyl-6-(2-(1-methyl-3-(pyrrolidin-1-yl)-1H-1,2,4-triazol-5-yl)ethyl)-2-(trifluoro-methyl)imidazo[1,2-b]pyridazine]
56	Cn1nc(N2CCCC2)nc1C#Cc1ccc2nc(Cl)cn2n1 [Example 36, 2-Chloro-6-((1-methyl-3-(pyrrolidin-1-yl)-1H-1,2,4-triazol-5-yl)ethynyl)imidazo[1,2-b]pyridazine]
194	Cc1nc2ccc(CCc3nc(N4CCCC4)nn3C)nn2c1CO [Example 21, (2-Methyl-6-(2-(1-methyl-3-(pyrrolidin-1-yl)-1H-1,2,4-triazol-5-yl)ethyl)imidazo[1,2-b]-pyridazin-3-yl)methanol]
2.9	Cc1nc2c(C3CC3)cc(CCc3nc(N4CCCC4)nn3C)nn2c1C [Example 49, 8-Cyclopropyl-2,3-dimethyl-6-(2-(1-methyl-3-(pyrrolidin-1-yl)-1H-1,2,4-triazol-5-yl)ethyl)imidazo[1,2-b]pyridazine]
98	Cc1nc2ccc(OCc3nc(N4CCCC4)nn3C)nn2c1C [Example 30, 2,3-Dimethyl-6-((1-methyl-3-(pyrrolidin-1-yl)-1H-1,2,4-triazol-5-yl)methoxy)imidazo[1,2-b]pyridazine]
9	Cc1nc2c(C(C)C)cc(CCc3nc(N4CCCC4)nn3C)nn2c1C [Example 45, 8-Isopropyl-2,3-dimethyl-6-(2-(1-methyl-3-(pyrrolidin-1-yl)-1H-1,2,4-triazol-5-yl)ethyl)-imidazo[1,2-b]pyridazine]
3	COc1cc(CCc2nc(N3CCCC3)nn2C)nn2c(C)c(C)nc12 [Example 12, 8-Methoxy-2,3-dimethyl-6-(2-(1-methyl-3-(pyrrolidin-1-yl)-1H-1,2,4-triazol-5-yl)ethyl)imidazo[1,2-b]pyridazine]
1	Cc1cc2nc(C)c(C)n2nc1C#Cc1nc(N2CCCC2)nn1C [Example 17, 2,3,7-Trimethyl-6-((1-methyl-3-(pyrrolidin-1-yl)-1H-1,2,4-triazol-5-yl)ethynyl)imidazo[1,2-b]pyridazine]
1	Cc1nc2c(OC(C)C)cc(C#Cc3nc(N4CCCC4)nn3C)nn2c1C [Example 25, 8-Isopropoxy-2,3-dimethyl-6-((1-methyl-3-(pyrrolidin-1-yl)-1H-1,2,4-triazol-5-yl)ethynyl)imidazo[1,2-b]pyridazine]
4	Cc1nc2c(Cl)nc(CCc3nc(N4CCCC4)nn3C)nn2c1C [Example 15, 4-Chloro-6,7-dimethyl-2-(2-(1-methyl-3-(pyrrolidin-1-yl)-1H-1,2,4-triazol-5-yl)ethyl)imidazo[1,2-f][1,2,4]triazine]
568	Cc1nc2ccc(SCc3nc(N4CCCC4)nn3C)nn2c1C [Example 28, 2,3-Dimethyl-6-((1-methyl-3-(pyrrolidin-1-yl)-1H-1,2,4-triazol-5-yl)methylthio)-imidazo[1,2-b]pyridazine]
0.6	Cc1nc2cc(C3CCC3)c(C#Cc3nc(N4CCCC4)nn3C)nn2c1C [Example 51, 7-Cyclobutyl-2,3-dimethyl-6-((1-methyl-3-(pyrrolidin-1-yl)-1H-1,2,4-triazol-5-yl)ethynyl)imidazo[1,2-b]pyridazine]

IC50 [nM]	Compound
146	Cc1cn2nc(CCc3nc(N4CCCC4)nn3C)ccc2n1 [Example 68, 2-Methyl-6-(2-(1-methyl-3-(pyrrolidin-1-yl)-1H-1,2,4-triazol-5-yl)ethyl)imidazo[1,2-b]pyridazine]
32.9	Cc1c(C(F)(F)F)nn2ccc(CCc3nc(N4CCCC4)nn3C)nc12 [Example 72, 3-methyl-5-(2-(1-methyl-3-(pyrrolidin-1-yl)-1H-1,2,4-triazol-5-yl)ethyl)-2-(trifluoromethyl)pyrazolo[1,5-a]pyrimidine]
6	Cc1nc2c3c(c(CCc4nc(N5CCCC5)nn4C)nn2c1C)CCCC3 [Example 24, 2,3-Dimethyl-6-(2-(1-methyl-3-(pyrrolidin-1-yl)-1H-1,2,4-triazol-5-yl)ethyl)-7,8,9,10-tetrahydroimidazo[2,1-a]phthalazine]
0.9	Cc1nc2c(C3CCC3)cc(C#Cc3nc(N4CCCC4)nn3C)nn2c1C [Example 47, 8-Cyclobutyl-2,3-dimethyl-6-((1-methyl-3-(pyrrolidin-1-yl)-1H-1,2,4-triazol-5-yl)ethynyl)imidazo[1,2-b]pyridazine]
5	Cc1nc2c(N3CCCC3)cc(CCc3nc(N4CCCC4)nn3C)nn2c1C [Example 19, 2,3-Dimethyl-6-(2-(1-methyl-3-(pyrrolidin-1-yl)-1H-1,2,4-triazol-5-yl)ethyl)-8-(pyrro-lidin-1-yl)imidazo[1,2-b]pyridazine]
2.3	Cc1nc2c(C3CCC3)cc(CCc3nc(N4CCCC4)nn3C)nn2c1C [Example 48, 8-Cyclobutyl-2,3-dimethyl-6-(2-(1-methyl-3-(pyrrolidin-1-yl)-1H-1,2,4-triazol-5-yl)ethyl)imidazo[1,2-b]pyridazine]
41	Cc1nc2c(S(C)(=O)=O)cc(CCc3nc(N4CCCC4)nn3C)nn2c1C [Example 33, 2,3-Dimethyl-6-(2-(1-methyl-3-(pyrrolidin-1-yl)-1H-1,2,4-triazol-5-yl)ethyl)-8-(methyl-sulfonyl)imidazo[1,2-b]pyridazine]
5.5	Cc1c(Cl)nc2ccc(CCc3nc(N4CCCC4)nn3C)nn12 [Example 64, 2-Chloro-3-methyl-6-(2-(1-methyl-3-(pyrrolidin-1-yl)-1H-1,2,4-triazol-5-yl)ethyl)imidazo[1,2-b]pyridazine]
534	Cc1nnc2ccc(CCc3nc(N4CCCC4)nn3C)nn12 [Example 57, 3-Methyl-6-(2-(1-methyl-3-(pyrrolidin-1-yl)-1H-1,2,4-triazol-5-yl)ethyl)[1,2,4]triazolo[4,3-b]pyridazine]
21	Cc1c(C#N)nc2ccc(CCc3nc(N4CCCC4)nn3C)nn12 [Example 5, 3-Methyl-6-[2-(2-methyl-5-pyrrolidin-1-yl-2H-[1,2,4]triazol-3-yl)-ethyl]-imidazo[1,2-b]pyridazine-2-carbonitrile]
290	Cc1c(C(F)(F)F)nc2ccc(OCc3nc(N4CCCC4)nn3C)nn12 [Example 23, 3-Methyl-6-((1-methyl-3-(pyrrolidin-1-yl)-1H-1,2,4-triazol-5-yl)methoxy)-2-(trifluoro-methyl)imidazo[1,2-b]pyridazine]
2.6	Cc1nc2cc(C(C)C)c(C#Cc3nc(N4CCCC4)nn3C)nn2c1C [Example 50, 7-Isopropyl-2,3-dimethyl-6-((1-methyl-3-(pyrrolidin-1-yl)-1H-1,2,4-triazol-5-yl)ethynyl)imidazo[1,2-b]pyridazine]
2	COc1nc(CCc2nc(N3CCCC3)nn2C)nn2c(C)c(C)nc12 [Example 13, 4-Methoxy-6,7-dimethyl-2-(2-(1-methyl-3-(pyrrolidin-1-yl)-1H-1,2,4-triazol-5-yl)ethyl)imidazo[1,2-f][1,2,4]triazine]
19	Cc1c(C(F)(F)F)nc2ccc(CCc3nc(N4CCCC4)n(C)n3)nn12 [Example 6, 3-Methyl-6-(2-(1-methyl-5-(pyrrolidin-1-yl)-1H-1,2,4-triazol-3-yl)ethyl)-2-(trifluoromethyl)imidazo[1,2-b]pyridazine]
195	Cc1cc2nc(C)c(C)n2nc1CCc1nc(N2CCCC2)nn1C [Example 18, 2,3,7-Trimethyl-6-(2-(1-methyl-3-(pyrrolidin-1-yl)-1H-1,2,4-triazol-5-yl)ethyl)imidazo[1,2-b]pyridazine]
38.2	Cc1nnc2ccc(C#Cc3nc(N4CCCC4)nn3C)nn12 [Example 56, 3-Methyl-6-((1-methyl-3-(pyrrolidin-1-yl)-1H-1,2,4-triazol-5-yl)ethynyl)[1,2,4]triazolo-[4,3-b]pyridazine]

Compound	IC50 [nM]
N-Ethyl-N,6,7-trimethyl-2-(2-(1-methyl-3-(pyrrolidin-1-yl)-1H-1,2,4-triazol-5-yl)ethyl)imidazo[1,2-f][1,2,4]triazin-4-amine [Example 34]	5
